Measured values published in patent publication US10383948B2, “Anti-cMet antibody drug conjugates and methods for their use” (AbbVie Inc., priority 2016, dated 2019).

Test system: cMet+ NSCLC
Assay: Phase 1 monotherapy in cMet+ NSCLC, best response
Assay type: in vivo, human
Description: A dose of 2.7 mg/kg was chosen for dose-expansion based primarily on safety and tolerability. For enrollment in this phase of the study, NSCLC subjects were screened for cMet overexpression using an IHC assay utilizing the CONFIRM anti-total cMet (SP44) Rabbit Monoclonal Primary Antibody kit purchased from Ventana (REF #790-4430). Tissue samples were scored by determining the percentages of target tissue cells staining at various intensity levels of low to high, i.e. IHC score of 0, 1+, 2+ or 3+ or an H-score of 0 to 149, 150-224, or 225-300. The scoring can be done either manually or via the aid of a computer. Details of the IHC assay and scoring are described in Example 17.

For “ABBV-399: ADC comprised of the cMet targeting antibody ABT-700 conjugated to MMAE through a valine citrulline (vc) linker”, which radiographic progressive disease (2/16 treated patients) is on record?
Its radiographic progressive disease is 12.5%.

And the partial responses (3/16 treated patients)?
The partial responses was 19%.

And the stable disease (6/16 treated patients)?
The stable disease was 37.5%.
